# According to PMC6423038, “Deferiprone: Pan-selective Histone Lysine Demethylase Inhibition Activity and Structure Activity Relationship Study” (Scientific Reports, 2019):
# Tests used:
# KDM1A (LSD1) = KDM1A (LSD1) (Homo sapiens, UniProt O60341); assay: KDM cell-free assay (AlphaScreen, BPS Bioscience)
# KDM6B (JMJD3) = KDM6B (JMJD3) (Homo sapiens, UniProt O15054); assay: KDM cell-free assay (AlphaScreen, BPS Bioscience)
# KDM6A (UTX) = target: T1, KDM6A (UTX) (Homo sapiens, UniProt O15550); assay: KDM cell-free assay (AlphaScreen, BPS Bioscience); format: biochemical; conditions: recombinant human KDM6A (UTX); read-out: IC50
# T1 construct: purchased BPS Bioscience
# T1 sequence (O15550 whole entry): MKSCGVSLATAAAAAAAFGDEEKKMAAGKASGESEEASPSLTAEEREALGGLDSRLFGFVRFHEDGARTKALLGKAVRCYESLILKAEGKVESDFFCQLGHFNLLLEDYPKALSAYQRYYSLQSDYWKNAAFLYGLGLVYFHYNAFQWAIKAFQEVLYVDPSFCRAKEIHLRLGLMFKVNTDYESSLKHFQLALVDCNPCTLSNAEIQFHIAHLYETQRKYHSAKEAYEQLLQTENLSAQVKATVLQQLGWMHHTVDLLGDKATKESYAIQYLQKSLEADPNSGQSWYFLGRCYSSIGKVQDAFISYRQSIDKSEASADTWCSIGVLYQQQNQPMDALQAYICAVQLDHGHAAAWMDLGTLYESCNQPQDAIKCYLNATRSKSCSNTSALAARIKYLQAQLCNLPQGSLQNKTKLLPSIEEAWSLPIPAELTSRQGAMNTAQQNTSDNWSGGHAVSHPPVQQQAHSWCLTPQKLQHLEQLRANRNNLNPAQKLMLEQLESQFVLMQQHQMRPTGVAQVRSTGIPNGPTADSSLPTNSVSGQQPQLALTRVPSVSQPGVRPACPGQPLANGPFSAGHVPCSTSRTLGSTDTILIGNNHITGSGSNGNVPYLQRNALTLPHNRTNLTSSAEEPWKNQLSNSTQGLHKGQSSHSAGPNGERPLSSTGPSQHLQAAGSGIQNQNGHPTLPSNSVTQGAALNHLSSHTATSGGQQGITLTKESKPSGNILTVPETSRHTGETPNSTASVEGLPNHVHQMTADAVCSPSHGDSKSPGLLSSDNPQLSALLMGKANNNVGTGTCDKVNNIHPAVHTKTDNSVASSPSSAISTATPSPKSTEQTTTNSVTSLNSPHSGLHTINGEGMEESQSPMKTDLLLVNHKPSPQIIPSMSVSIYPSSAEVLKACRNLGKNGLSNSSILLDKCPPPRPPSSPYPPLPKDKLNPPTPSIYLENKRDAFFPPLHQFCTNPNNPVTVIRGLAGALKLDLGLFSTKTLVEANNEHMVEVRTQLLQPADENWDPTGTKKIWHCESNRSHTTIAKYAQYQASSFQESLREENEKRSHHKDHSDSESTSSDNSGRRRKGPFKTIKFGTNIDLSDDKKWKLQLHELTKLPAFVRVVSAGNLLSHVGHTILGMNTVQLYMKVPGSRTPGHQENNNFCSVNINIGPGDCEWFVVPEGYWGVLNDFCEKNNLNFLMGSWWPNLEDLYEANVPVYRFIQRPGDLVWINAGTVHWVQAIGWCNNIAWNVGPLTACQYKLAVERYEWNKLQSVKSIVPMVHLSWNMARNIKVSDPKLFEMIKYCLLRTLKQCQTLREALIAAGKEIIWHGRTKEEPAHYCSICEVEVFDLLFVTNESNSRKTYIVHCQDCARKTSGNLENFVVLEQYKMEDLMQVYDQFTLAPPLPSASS
# KDM5A (Jarid1A) = KDM5A (Jarid1A) (Homo sapiens, UniProt P29375); assay: KDM cell-free assay (AlphaScreen, BPS Bioscience)
# KDM4B (JMJD2B) = KDM4B (JMJD2B) (Homo sapiens, UniProt O94953); assay: KDM cell-free assay (AlphaScreen, BPS Bioscience)
# KDM4C (JMJD2C) = KDM4C (JMJD2C) (Homo sapiens, UniProt Q9H3R0); assay: KDM cell-free assay (AlphaScreen, BPS Bioscience)
# KDM4E (JMJD2E) = KDM4E (JMJD2E) (Homo sapiens, UniProt B2RXH2); assay: KDM cell-free assay (AlphaScreen, BPS Bioscience)
# KDM4E (JMJD2E), sequence (B2RXH2 whole entry): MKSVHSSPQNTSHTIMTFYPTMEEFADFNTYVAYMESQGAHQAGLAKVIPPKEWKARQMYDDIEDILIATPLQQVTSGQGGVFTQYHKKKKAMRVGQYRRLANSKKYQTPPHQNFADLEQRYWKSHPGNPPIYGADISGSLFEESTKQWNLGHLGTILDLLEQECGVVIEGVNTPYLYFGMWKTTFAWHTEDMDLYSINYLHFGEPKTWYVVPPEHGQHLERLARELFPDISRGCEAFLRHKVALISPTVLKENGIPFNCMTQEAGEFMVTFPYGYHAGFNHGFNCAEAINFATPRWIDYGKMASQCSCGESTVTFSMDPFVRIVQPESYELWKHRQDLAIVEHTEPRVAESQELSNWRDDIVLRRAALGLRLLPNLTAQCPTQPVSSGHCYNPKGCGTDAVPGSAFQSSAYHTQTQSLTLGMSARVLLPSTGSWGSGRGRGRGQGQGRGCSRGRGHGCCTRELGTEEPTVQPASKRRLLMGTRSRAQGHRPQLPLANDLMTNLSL
# KDM7A (JHDM1D) = KDM7A (JHDM1D) (Homo sapiens, UniProt Q6ZMT4); assay: KDM cell-free assay (AlphaScreen, BPS Bioscience)
# KDM7A (JHDM1D), sequence (Q6ZMT4 whole entry): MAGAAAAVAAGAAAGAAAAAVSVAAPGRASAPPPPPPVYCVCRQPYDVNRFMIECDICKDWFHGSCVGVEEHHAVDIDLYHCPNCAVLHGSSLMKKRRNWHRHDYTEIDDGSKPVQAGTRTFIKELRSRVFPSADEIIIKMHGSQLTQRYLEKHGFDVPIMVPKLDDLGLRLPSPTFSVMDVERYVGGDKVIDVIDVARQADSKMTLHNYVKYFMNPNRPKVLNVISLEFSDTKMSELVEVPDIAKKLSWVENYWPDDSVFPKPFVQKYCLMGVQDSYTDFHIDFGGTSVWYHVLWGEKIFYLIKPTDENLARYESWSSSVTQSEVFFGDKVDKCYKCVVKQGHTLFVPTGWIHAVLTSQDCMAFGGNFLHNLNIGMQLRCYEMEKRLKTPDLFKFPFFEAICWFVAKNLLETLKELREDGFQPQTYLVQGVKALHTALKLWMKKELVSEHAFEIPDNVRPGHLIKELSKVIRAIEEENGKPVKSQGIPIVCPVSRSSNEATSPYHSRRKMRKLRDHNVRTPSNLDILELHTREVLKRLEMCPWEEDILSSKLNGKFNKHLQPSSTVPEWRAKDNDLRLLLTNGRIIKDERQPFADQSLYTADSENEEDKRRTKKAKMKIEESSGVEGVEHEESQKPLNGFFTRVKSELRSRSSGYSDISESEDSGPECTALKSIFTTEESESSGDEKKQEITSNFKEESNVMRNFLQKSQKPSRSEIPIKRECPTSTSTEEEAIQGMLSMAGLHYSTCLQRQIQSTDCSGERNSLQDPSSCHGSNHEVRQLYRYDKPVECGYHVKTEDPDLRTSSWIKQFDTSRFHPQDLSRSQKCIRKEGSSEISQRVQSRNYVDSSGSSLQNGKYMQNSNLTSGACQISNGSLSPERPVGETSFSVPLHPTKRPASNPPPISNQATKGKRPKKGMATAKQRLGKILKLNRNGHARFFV
# KDM3A (JMJD1A) = KDM3A (JMJD1A) (Homo sapiens, UniProt Q9Y4C1); assay: KDM cell-free assay (AlphaScreen, BPS Bioscience)
# KDM5B (Jarid1B) = KDM5B (Jarid1B) (Homo sapiens, UniProt Q9UGL1); assay: KDM cell-free assay (AlphaScreen, BPS Bioscience)
# KDM4D (JMJD2D) = KDM4D (JMJD2D) (Homo sapiens, UniProt Q6B0I6); assay: KDM cell-free assay (AlphaScreen, BPS Bioscience)
# KDM4D (JMJD2D), sequence (Q6B0I6 whole entry): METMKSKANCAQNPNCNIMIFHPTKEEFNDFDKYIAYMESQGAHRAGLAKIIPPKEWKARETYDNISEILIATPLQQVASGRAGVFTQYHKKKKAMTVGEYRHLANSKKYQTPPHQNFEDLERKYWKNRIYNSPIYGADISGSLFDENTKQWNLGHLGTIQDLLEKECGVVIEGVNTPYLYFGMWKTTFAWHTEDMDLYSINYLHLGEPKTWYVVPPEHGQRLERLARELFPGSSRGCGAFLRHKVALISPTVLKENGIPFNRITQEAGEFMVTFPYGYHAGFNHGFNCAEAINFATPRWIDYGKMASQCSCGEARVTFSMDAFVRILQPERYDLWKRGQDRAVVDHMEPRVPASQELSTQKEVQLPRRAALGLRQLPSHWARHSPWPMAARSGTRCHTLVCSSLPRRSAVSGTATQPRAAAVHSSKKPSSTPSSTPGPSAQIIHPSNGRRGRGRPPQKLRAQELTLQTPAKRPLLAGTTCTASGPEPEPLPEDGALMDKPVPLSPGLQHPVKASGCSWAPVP
# KDM3B (JMJD1B) = KDM3B (JMJD1B) (Homo sapiens, UniProt Q7LBC6); assay: KDM cell-free assay (AlphaScreen, BPS Bioscience)
# KDM7B (PHF8) = KDM7B (PHF8) (Homo sapiens, UniProt Q9UPP1); assay: KDM cell-free assay (AlphaScreen, BPS Bioscience)
# [1] = test system: HP1-mediated heterochromatin gene repression in CiA:Oct4 embryonic stem cells; assay: HP1-recruitment assay dose curve (CiA:Oct4, with CIP-rapamycin), flow cytometry; format: cell-based, mouse; conditions: 48 h with CIP-rapamycin recruitment of HP1; up to 10 µM
# From the text: To elucidate the effect of DFP-based KDM inhibitors on chromatin dynamics, we profiled them in an intracellular assay which measures heterochromatin formation speed. The chromatin in vivo assay (CiA) leverages chemical induced proximity (CIP) to recruit heterochromatin protein 1 (HP1) to a modified Oct4 locus. This reporter system is composed of tandem arrays of Gal4 and zinc finger DNA binding domains in the promoter of one allele of Oct4, where the gene was replaced by a nuclear eGFP reporter. Protein fusions of Gal4-FKBP and FRB-HP1 allow for direct chemical recruitment of HP1 to the CiA:Oct4 reporter locus upon addition of the chemical inducer of proximity (CIP)-rapamycin. After CIP-rapamycin addition, HP1 is recruited to the reporter locus and brings histone methyltransferase enzymes to the chromatin reporter resulting in the repressive H3K9me3 mark being deposited (Fig. 10A). H3K9me3 deposition is the signature mark of heterochromatin and is coupled with gene silencing and loss of GFP expression (Fig. 10B)[33]. Others have shown that H3K4me3 marked nucleosomes impede H3K9 methyltransferase activity. Thus, we postulate that the active H3K4me3 mark must be removed by KDM enzymes as part of the transformation from euchromatin to heterochromatin. Inhibition of KDMs, specifically those targeting H3K4me3, would result in a decrease in H3K9me3 accumulation, which would be measured in our assay as an increase in GFP positive cells.
# To determine the effect of DFP-based KDM inhibitors on HP1-mediated gene repression, we treated CiA:Oct4 embryonic stem (ES) cells with doses of representative compounds ranging from 10 µM–250 nM for 48 h with CIP-rapamycin recruitment of HP1 (Fig. 10C). […] The percentage of GFP(+) cells was determined by flow cytometry as indicated in representative histograms (Supplemental Fig. S8).
# Day 0, CiA:Oct4 N118/163 cells were grown in ES media and seeded at a density of 10,000 cells per well in 100 μL media (100,000 cells mL^−1) on gelatin coated 96 well plates. Day 1, culture media was aspirated and replaced with 100 µL ES media containing +/− 6 nM rapamycin. 10 µM, 5 µM, 2.5 µM, 1 µM, 500 nM, and 250 nM concentrations of compound or DMSO were added using a TTP Labtech Mosquito HTS liquid handler. Days 2, fresh ES media +/− rapamycin and compound were added as in Day 1. Day 3, cells were washed with PBS and trypsinized using 0.25% trypsin-EDTA. Trypsin was quenched with serum. Cells were resuspended by pipetting in preparation for flow cytometry analysis.
# Flow cytometry data was acquired using the Intellicyt iQue Screener and analyzed with FlowJo software.
# The CiA:Oct4 recruitment system in mouse embryonic stem cells contains Gal4 and Zinc finger DNA binding arrays and a downstream nuclear eGFP gene in place of a single Oct4 allele as previously described.^30 The CiA:Oct4 N118/N163 cell line containing viral integrations of N118 and N163 plasmids (N118- nLV EF-1α-Gal-FKBPx1-HA-PGK-Blast, N163- nLV EF-1α-HP1α (CS)-Frbx2(Frb+FrbWobb)-V5-PGK-Puro) was used for inhibition of HP1-mediated heterochromatin studies. All plasmids are freely available on addgene.
# HP1-Recruitment Assay Dose Curve. Day 0, CiA:Oct4 N118/163 cells were grown in ES media and seeded at a density of 10,000 cells per well in 100 µL media (100,000 cells mL^-1) on gelatin coated 96 well plates. Day 1, culture media was aspirated and replaced with 100 µL ES media containing +/- 6 nM rapamycin. 10 µM, 5 µM, 2.5 µM, 1 µM, 500 nM, and 250 nM concentrations of compound or DMSO were added using a TTP Labtech Mosquito HTS liquid handler. Days 2, fresh ES media +/- rapamycin and compound were added as in Day 1. Day 3, cells were washed with PBS and trypsinized using 0.25% trypsin-EDTA. Trypsin was quenched with serum. Cells were resuspended by pipetting in preparation for flow cytometry analysis.
# Flow Cytometry and Analysis.
# KDM6B (JMJD3), sequence (O15054 whole entry): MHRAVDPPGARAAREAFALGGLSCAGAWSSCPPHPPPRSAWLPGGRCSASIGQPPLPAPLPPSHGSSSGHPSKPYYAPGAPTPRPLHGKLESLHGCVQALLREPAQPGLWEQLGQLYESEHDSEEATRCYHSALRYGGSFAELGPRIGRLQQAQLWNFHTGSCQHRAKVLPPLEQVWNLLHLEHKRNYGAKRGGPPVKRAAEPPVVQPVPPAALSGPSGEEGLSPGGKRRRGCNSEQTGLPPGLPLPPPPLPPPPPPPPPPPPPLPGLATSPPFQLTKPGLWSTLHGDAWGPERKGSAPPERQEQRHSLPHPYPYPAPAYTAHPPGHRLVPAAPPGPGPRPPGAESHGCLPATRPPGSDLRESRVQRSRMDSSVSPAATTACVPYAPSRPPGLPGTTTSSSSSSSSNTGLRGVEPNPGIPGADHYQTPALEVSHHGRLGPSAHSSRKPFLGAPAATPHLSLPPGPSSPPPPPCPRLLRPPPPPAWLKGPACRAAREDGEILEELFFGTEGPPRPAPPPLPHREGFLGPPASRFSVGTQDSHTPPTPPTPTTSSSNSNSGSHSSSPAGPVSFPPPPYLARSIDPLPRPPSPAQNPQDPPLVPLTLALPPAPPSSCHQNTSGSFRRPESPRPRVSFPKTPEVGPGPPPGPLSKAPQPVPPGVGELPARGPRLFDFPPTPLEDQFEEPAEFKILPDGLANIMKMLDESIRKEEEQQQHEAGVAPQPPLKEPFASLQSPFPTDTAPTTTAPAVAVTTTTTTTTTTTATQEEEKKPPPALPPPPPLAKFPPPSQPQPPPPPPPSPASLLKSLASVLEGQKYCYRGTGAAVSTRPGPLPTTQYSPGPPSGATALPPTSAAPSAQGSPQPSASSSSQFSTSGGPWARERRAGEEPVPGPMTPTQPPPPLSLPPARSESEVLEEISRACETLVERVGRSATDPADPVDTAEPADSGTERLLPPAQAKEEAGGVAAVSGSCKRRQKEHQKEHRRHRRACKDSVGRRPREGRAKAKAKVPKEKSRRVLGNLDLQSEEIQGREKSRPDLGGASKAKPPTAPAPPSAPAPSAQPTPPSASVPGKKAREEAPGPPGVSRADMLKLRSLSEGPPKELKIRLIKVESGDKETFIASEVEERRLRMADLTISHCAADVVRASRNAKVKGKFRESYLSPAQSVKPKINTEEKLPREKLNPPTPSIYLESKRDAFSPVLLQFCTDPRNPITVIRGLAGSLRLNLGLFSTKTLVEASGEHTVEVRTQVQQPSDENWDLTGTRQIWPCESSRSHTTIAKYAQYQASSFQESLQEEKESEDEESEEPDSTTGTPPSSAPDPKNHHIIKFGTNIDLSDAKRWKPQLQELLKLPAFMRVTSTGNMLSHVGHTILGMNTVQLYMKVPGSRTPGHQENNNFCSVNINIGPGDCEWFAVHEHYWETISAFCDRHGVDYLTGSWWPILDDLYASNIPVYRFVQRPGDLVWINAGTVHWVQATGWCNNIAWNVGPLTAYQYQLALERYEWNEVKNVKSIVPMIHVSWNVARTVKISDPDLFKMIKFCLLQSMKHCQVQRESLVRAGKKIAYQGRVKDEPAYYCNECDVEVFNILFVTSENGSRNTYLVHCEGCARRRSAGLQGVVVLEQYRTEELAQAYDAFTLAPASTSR
compound,measurement,setting,value
"Cc1c(O)c(=O)ccn1C [DFP, Deferiprone]",IC50,KDM1A (LSD1),> 25 µM
same,IC50,KDM6B (JMJD3),> 25 µM
same,IC50,KDM6A (UTX),4.2 µM
same,IC50,KDM5A (Jarid1A),> 25 µM
same,IC50,KDM4B (JMJD2B),> 25 µM
same,IC50,KDM4C (JMJD2C),> 25 µM
same,IC50,KDM4E (JMJD2E),> 25 µM
same,IC50,KDM7A (JHDM1D),16.6 µM
same,IC50,KDM3A (JMJD1A),> 25 µM
same,IC50,KDM5B (Jarid1B),> 25 µM
same,IC50,KDM4D (JMJD2D),> 25 µM
same,IC50,KDM3B (JMJD1B),> 25 µM
same,IC50,KDM7B (PHF8),15.6 µM
same,inhibition of heterochromatin formation,[1],did not inhibit heterochromatin formation
